Laboratory results from ChEMBL document CHEMBL2203120, “Contribution to investigation of antimicrobial activity of styrylquinolines” (Bioorg Med Chem, 2012).
Values after ≈ are worked out from the molar mass of the structure shown.

What was measured:
Lichtheimia corymbifera [1] = assay: Antimicrobial activity against Absidia corymbifera 272 after 24 hrs by broth microdilution test; type: functional; conditions: Lichtheimia corymbifera, 272, 24 h
Nakaseomyces glabratus [2] = assay: Antimicrobial activity against Candida glabrata 20/I after 24 hrs by broth microdilution test; type: functional
Pichia kudriavzevii [3] = assay: Antimicrobial activity against Candida krusei ATCC 6258 after 24 hrs by broth microdilution test; type: functional; conditions: ATCC 6258, 24 h
Staphylococcus aureus [4] = assay: Antimicrobial activity against Staphylococcus aureus CCM 4516/08 after 48 hrs by broth microdilution method; type: functional; conditions: CCM 4516/08, 48 h
[5] = system: Trichophyton mentagrophytes; assay: Antimicrobial activity against Trichophyton mentagrophytes 445 after 120 hrs by broth microdilution test; type: functional; conditions: Trichophyton mentagrophytes, 445, 120 h
Staphylococcus aureus [6] = assay: Antimicrobial activity against methicillin-resistant Staphylococcus aureus H 5996/08 after 48 hrs by broth microdilution method; type: functional; conditions: H 5996/08, 48 h
Trichosporon beigelii [7] = assay: Antimicrobial activity against Trichosporon beigelii 1188 after 48 hrs by broth microdilution test; type: functional; conditions: Trichosporon beigelii, 1188, 48 h
Lichtheimia corymbifera [8] = assay: Antimicrobial activity against Absidia corymbifera 272 after 48 hrs by broth microdilution test; type: functional; conditions: Lichtheimia corymbifera, 272, 48 h
Candida albicans [9] = assay: Antimicrobial activity against Candida albicans ATCC 44859 after 24 hrs by broth microdilution test; type: functional; conditions: ATCC 44859, 24 h
Staphylococcus aureus [10] = assay: Antimicrobial activity against methicillin-resistant Staphylococcus aureus H 5996/08 after 24 hrs by broth microdilution method; type: functional; conditions: H 5996/08, 24 h
[11] = system: Staphylococcus epidermidis; assay: Antimicrobial activity against Staphylococcus epidermidis H 6966/08 after 24 hrs by broth microdilution method; type: functional; conditions: H 6966/08, 24 h
Staphylococcus aureus [12] = assay: Antimicrobial activity against Staphylococcus aureus CCM 4516/08 after 24 hrs by broth microdilution method; type: functional; conditions: CCM 4516/08, 24 h
Nakaseomyces glabratus [13] = assay: Antimicrobial activity against Candida glabrata 20/I after 48 hrs by broth microdilution test; type: functional
[14] = system: Trichophyton mentagrophytes; assay: Antimicrobial activity against Trichophyton mentagrophytes 445 after 72 hrs by broth microdilution test; type: functional; conditions: Trichophyton mentagrophytes, 445, 72 h
Pichia kudriavzevii [15] = assay: Antimicrobial activity against Candida krusei ATCC 6258 after 48 hrs by broth microdilution test; type: functional; conditions: ATCC 6258, 48 h
[16] = Lipophilicity, log P of compound by RP-HPLC analysis; type: physicochemical
[17] = system: Staphylococcus epidermidis; assay: Antimicrobial activity against Staphylococcus epidermidis H 6966/08 after 48 hrs by broth microdilution method; type: functional; conditions: H 6966/08, 48 h
Candida tropicalis [18] = assay: Antimicrobial activity against Candida tropicalis 156 after 24 hrs by broth microdilution test; type: functional; conditions: Candida tropicalis, 156, 24 h
Trichosporon beigelii [19] = assay: Antimicrobial activity against Trichosporon beigelii 1188 after 24 hrs by broth microdilution test; type: functional; conditions: Trichosporon beigelii, 1188, 24 h
Candida tropicalis [20] = assay: Antimicrobial activity against Candida tropicalis 156 after 48 hrs by broth microdilution test; type: functional; conditions: Candida tropicalis, 156, 48 h
Aspergillus fumigatus [21] = assay: Antimicrobial activity against Aspergillus fumigatus 231 after 48 hrs by broth microdilution test; type: functional; conditions: Aspergillus fumigatus, 231, 48 h
Aspergillus fumigatus [22] = assay: Antimicrobial activity against Aspergillus fumigatus 231 after 24 hrs by broth microdilution test; type: functional; conditions: Aspergillus fumigatus, 231, 24 h
Candida albicans [23] = assay: Antimicrobial activity against Candida albicans ATCC 44859 after 48 hrs by broth microdilution test; type: functional; conditions: ATCC 44859, 48 h

| SMILES | MIC50 (Lichtheimia corymbifera [1]) [µM] | MIC80 (Nakaseomyces glabratus [2]) [µM] | MIC80 (Pichia kudriavzevii [3]) [µM] | MIC90 (Staphylococcus aureus [4]) [µM] | MIC50 [5] [µM] | MIC90 (Staphylococcus aureus [6]) [µM] | MIC80 (Trichosporon beigelii [7]) [µM] | MIC50 (Lichtheimia corymbifera [8]) [µM] | MIC80 (Candida albicans [9]) [µM] | MIC90 (Staphylococcus aureus [10]) [µM] | MIC90 [11] [µM] | MIC90 (Staphylococcus aureus [12]) [µM] | MIC80 (Nakaseomyces glabratus [13]) [µM] | MIC50 [14] [µM] | MIC80 (Pichia kudriavzevii [15]) [µM] | logP [16] | MIC90 [17] [µM] | MIC80 (Candida tropicalis [18]) [µM] | MIC80 (Trichosporon beigelii [19]) [µM] | MIC80 (Candida tropicalis [20]) [µM] | other results |
| --- | --- | --- | --- | --- | --- | --- | --- | --- | --- | --- | --- | --- | --- | --- | --- | --- | --- | --- | --- | --- | --- |
| Oc1ccc(/C=C/c2ccc3cccc(O)c3n2)c(O)c1 | > 125 | 62.5 (≈ 17.5 µg/mL) | 62.5 (≈ 17.5 µg/mL) | 31.2 (≈ 8.73 µg/mL) | 62.5 (≈ 17.5 µg/mL) | 62.5 (≈ 17.5 µg/mL) | 125 (≈ 34.9 µg/mL) | > 125 | 125 (≈ 34.9 µg/mL) | 31.2 (≈ 8.73 µg/mL) | 125 (≈ 34.9 µg/mL) | 15.6 (≈ 4.36 µg/mL) | 125 (≈ 34.9 µg/mL) | 31.2 (≈ 8.73 µg/mL) | 125 (≈ 34.9 µg/mL) | 3.56 | 250 (≈ 69.8 µg/mL) | > 125 | 62.5 (≈ 17.5 µg/mL) | > 125 | MIC50 (Aspergillus fumigatus [21]): 125 µM (≈ 34.9 µg/mL); MIC50 (Aspergillus fumigatus [22]): 125 µM (≈ 34.9 µg/mL); MIC80 (Candida albicans [23]): > 125 µM |
| Oc1cccc(/C=C/c2ccc3cccc(O)c3n2)c1 | > 125 | > 125 | > 125 | 125 (≈ 32.9 µg/mL) | > 125 | 125 (≈ 32.9 µg/mL) | > 125 | > 125 | > 125 | 125 (≈ 32.9 µg/mL) | 250 (≈ 65.8 µg/mL) | 125 (≈ 32.9 µg/mL) | > 125 | > 125 | > 125 | 3.95 | 500 (≈ 132 µg/mL) | > 125 | > 125 | > 125 | MIC50 (Aspergillus fumigatus [21]): > 125 µM; MIC50 (Aspergillus fumigatus [22]): > 125 µM; MIC80 (Candida albicans [23]): > 125 µM |
